Test results from ChEMBL document CHEMBL1126959, “HMG-CoA reductase inhibitors: design, synthesis, and biological activity of tetrahydroindazole-substituted 3,5-dihydroxy-6-heptenoic acid sodium salts” (J Med Chem, 1993).
Values belong to the compound of their own block, whether it stands above or below them.

Assays:
HepG2 [1] = assay: Tested for ability to inhibit incorporation of [14C]acetate into cholesterol in cultured human hepatoma (HEP-G2) cells; 0.56-2.2; assay type: functional, cell-based
[2] = molecular target: T1, 3-hydroxy-3-methylglutaryl-coenzyme A reductase (Rattus norvegicus, UniProt P51639); assay: Inhibitory activity against partially purified rat liver HMG-CoA reductase in vitro; 0.07-0.27
T1 sequence (P51639 whole entry): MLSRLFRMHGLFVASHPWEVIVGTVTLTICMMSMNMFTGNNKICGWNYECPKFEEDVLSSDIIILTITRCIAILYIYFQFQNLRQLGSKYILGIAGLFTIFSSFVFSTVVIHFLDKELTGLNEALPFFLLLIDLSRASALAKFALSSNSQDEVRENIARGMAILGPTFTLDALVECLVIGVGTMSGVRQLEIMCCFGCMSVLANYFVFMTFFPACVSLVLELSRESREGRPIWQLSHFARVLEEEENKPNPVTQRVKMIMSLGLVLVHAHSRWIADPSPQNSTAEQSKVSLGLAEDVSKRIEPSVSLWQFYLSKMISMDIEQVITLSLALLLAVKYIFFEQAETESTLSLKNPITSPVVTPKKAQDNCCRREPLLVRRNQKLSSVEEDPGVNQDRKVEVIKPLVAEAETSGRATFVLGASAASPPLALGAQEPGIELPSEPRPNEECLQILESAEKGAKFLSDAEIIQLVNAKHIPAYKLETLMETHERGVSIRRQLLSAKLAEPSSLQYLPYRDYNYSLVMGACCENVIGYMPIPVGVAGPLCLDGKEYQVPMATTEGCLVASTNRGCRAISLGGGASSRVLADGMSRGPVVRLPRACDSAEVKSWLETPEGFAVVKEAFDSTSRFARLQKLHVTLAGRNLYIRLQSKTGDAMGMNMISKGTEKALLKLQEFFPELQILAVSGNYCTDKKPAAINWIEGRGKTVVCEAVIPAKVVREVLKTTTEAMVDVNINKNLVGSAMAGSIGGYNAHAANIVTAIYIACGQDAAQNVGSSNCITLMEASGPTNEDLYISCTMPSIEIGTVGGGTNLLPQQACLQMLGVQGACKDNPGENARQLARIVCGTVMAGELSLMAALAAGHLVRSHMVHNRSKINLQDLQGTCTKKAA

HepG2 [3] = assay: Tested for ability to inhibit incorporation of [14C]acetate into cholesterol in cultured human hepatoma (HEP-G2) cells; 0.31-2.4; assay type: functional, cell-based
[4] = molecular target: T1, 3-hydroxy-3-methylglutaryl-coenzyme A reductase; assay: Inhibitory activity against partially purified rat liver HMG-CoA reductase in vitro; 0.12-0.21
[5] = molecular target: T1, 3-hydroxy-3-methylglutaryl-coenzyme A reductase; assay: Inhibitory activity against partially purified rat liver HMG-CoA reductase in vitro; 2.1-54
HepG2 [6] = assay: Tested for ability to inhibit incorporation of [14C]acetate into cholesterol in cultured human hepatoma (HEP-G2) cells; 1.3-2.3; assay type: functional, cell-based
[7] = molecular target: T1, 3-hydroxy-3-methylglutaryl-coenzyme A reductase; assay: Inhibitory activity against partially purified rat liver HMG-CoA reductase in vitro; 0.41-0.73
HepG2 [8] = assay: Tested for ability to inhibit incorporation of [14C]acetate into cholesterol in cultured human hepatoma (HEP-G2) cells; 0.15-0.33; assay type: functional, cell-based
[9] = molecular target: T1, 3-hydroxy-3-methylglutaryl-coenzyme A reductase; assay: Inhibitory activity against partially purified rat liver HMG-CoA reductase in vitro; 0.0040-0.053
HepG2 [10] = assay: Tested for ability to inhibit incorporation of [14C]acetate into cholesterol in cultured human hepatoma (HEP-G2) cells; 0.0071-23; assay type: functional, cell-based
[11] = molecular target: T1, 3-hydroxy-3-methylglutaryl-coenzyme A reductase; assay: Inhibitory activity against partially purified rat liver HMG-CoA reductase in vitro; 0.16-0.24
[12] = molecular target: T1, 3-hydroxy-3-methylglutaryl-coenzyme A reductase; assay: Inhibitory activity against partially purified rat liver HMG-CoA reductase in vitro; 0.0015-0.0049
HepG2 [13] = assay: Tested for ability to inhibit incorporation of [14C]acetate into cholesterol in cultured human hepatoma (HEP-G2) cells; 0.013-0.81; assay type: functional, cell-based
HepG2 [14] = assay: Tested for ability to inhibit incorporation of [14C]acetate into cholesterol in cultured human hepatoma (HEP-G2) cells; 0.44-3.0; assay type: functional, cell-based
[15] = molecular target: T1, 3-hydroxy-3-methylglutaryl-coenzyme A reductase; assay: Inhibitory activity against partially purified rat liver HMG-CoA reductase in vitro; 0.027-0.046
[16] = molecular target: T1, 3-hydroxy-3-methylglutaryl-coenzyme A reductase; assay: Inhibitory activity against partially purified rat liver HMG-CoA reductase in vitro; 2.6-4.8
[17] = molecular target: T1, 3-hydroxy-3-methylglutaryl-coenzyme A reductase; assay: Inhibitory activity against partially purified rat liver HMG-CoA reductase in vitro; 1.2-3.3
HepG2 [18] = assay: Tested for ability to inhibit incorporation of [14C]acetate into cholesterol in cultured human hepatoma (HEP-G2) cells; 0.046-0.17; assay type: functional, cell-based
HepG2 [19] = assay: Tested for ability to inhibit incorporation of [14C]acetate into cholesterol in cultured human hepatoma (HEP-G2) cells; 0.051-0.12; assay type: functional, cell-based
[20] = molecular target: T1, 3-hydroxy-3-methylglutaryl-coenzyme A reductase; assay: Inhibitory activity against partially purified rat liver HMG-CoA reductase in vitro; 0.021-0.036
[21] = molecular target: T1, 3-hydroxy-3-methylglutaryl-coenzyme A reductase; assay: Inhibitory activity against partially purified rat liver HMG-CoA reductase in vitro; 0.038-0.18
HepG2 [22] = assay: Tested for ability to inhibit incorporation of [14C]acetate into cholesterol in cultured human hepatoma (HEP-G2) cells; 0.70-1.4; assay type: functional, cell-based
[23] = molecular target: T1, 3-hydroxy-3-methylglutaryl-coenzyme A reductase; assay: Inhibitory activity against partially purified rat liver HMG-CoA reductase in vitro; 0.0073-0.017
HepG2 [24] = assay: Tested for ability to inhibit incorporation of [14C]acetate into cholesterol in cultured human hepatoma (HEP-G2) cells; 0.019-0.14; assay type: functional, cell-based
[25] = molecular target: T1, 3-hydroxy-3-methylglutaryl-coenzyme A reductase; assay: Inhibitory activity against partially purified rat liver HMG-CoA reductase in vitro; 1.9-5.3

Structure (SMILES): O=C(O)C[C@H](O)C[C@H](O)/C=C/c1c2c(nn1-c1ccc(F)cc1)C(CCCc1ccccc1)CCC2 (stereo partly specified)
IC50 (HepG2 [3]): 870 nM
IC50 [4]: 160 nM

Structure (SMILES): O=C(O)C[C@H](O)C[C@H](O)/C=C/c1c2c(nn1-c1ccc(F)cc1)CCC2
IC50 [5]: 11000 nM

Structure (SMILES): O=C(O)C[C@H](O)C[C@H](O)/C=C/c1c2c(nn1-c1ccc(F)cc1)C(CCc1ccccc1)CCC2 (stereo partly specified)
IC50 (HepG2 [6]): 1700 nM
IC50 [7]: 540 nM

Structure (SMILES): O=C(O)C[C@H](O)C[C@H](O)/C=C/c1c2c(nn1-c1ccc(F)cc1)C(Cc1ccc(-c3ccccc3)cc1)CCC2 (stereo partly specified)
IC50 [12]: 3 nM
IC50 (HepG2 [13]): 100 nM

Structure (SMILES): COc1cccc(CC2CCCc3c2nn(-c2ccc(F)cc2)c3/C=C/[C@@H](O)C[C@@H](O)CC(=O)O)c1 (stereo partly specified)
IC50 (HepG2 [14]): 1200 nM
IC50 [15]: 35 nM

Structure (SMILES): O=C(O)C[C@H](O)C[C@H](O)/C=C/c1c2c(nn1-c1ccc(F)cc1)CCCCC2
IC50 [16]: 3600 nM

Structure (SMILES): CCC1CCCc2c1nn(-c1ccc(F)cc1)c2/C=C/[C@@H](O)C[C@@H](O)CC(=O)O (stereo partly specified)
IC50 [17]: 2000 nM

Structure (SMILES): O=C(O)C[C@H](O)C[C@H](O)/C=C/c1c2c(nn1-c1ccc(F)cc1)C(C/C=C/c1ccccc1)CCC2 (stereo partly specified)
IC50 [21]: 82 nM
IC50 (HepG2 [22]): 1000 nM

Structure (SMILES): CC[C@H](C)C(=O)O[C@H]1C[C@@H](C)C=C2C=C[C@H](C)[C@H](CC[C@@H]3C[C@@H](O)CC(=O)O3)C21 (stereo partly specified)
IC50 [23]: 9.2 nM
IC50 (HepG2 [24]): 50 nM

Structure (SMILES): CCCC1CCCc2c1nn(-c1ccc(F)cc1)c2/C=C/[C@@H](O)C[C@@H](O)CC(=O)O (stereo partly specified)
IC50 [25]: 3400 nM

More lines, now with the values ahead:

IC50 (HepG2 [1]): 1100 nM
IC50 [2]: 140 nM
Structure (SMILES): O=C(O)C[C@H](O)C[C@H](O)/C=C/c1c2c(nn1-c1ccc(F)cc1)C(Cc1ccc(Cl)cc1)CCC2 (stereo partly specified)

IC50 (HepG2 [8]): 230 nM
IC50 [9]: 40 nM
Structure (SMILES): CC(C)c1ccc(CC2CCCc3c2nn(-c2ccc(F)cc2)c3/C=C/[C@@H](O)C[C@@H](O)CC(=O)O)cc1 (stereo partly specified)

IC50 (HepG2 [10]): 400 nM
IC50 [11]: 200 nM
Structure (SMILES): O=C(O)C[C@H](O)C[C@H](O)/C=C/c1c2c(nn1-c1ccc(F)cc1)C(Cc1ccc(F)cc1)CCC2 (stereo partly specified)

IC50 (HepG2 [18]): 88 nM
IC50 [9]: 14 nM
Structure (SMILES): CC(C)(C)c1ccc(CC2CCCc3c2nn(-c2ccc(F)cc2)c3/C=C/[C@@H](O)C[C@@H](O)CC(=O)O)cc1 (stereo partly specified)

IC50 (HepG2 [19]): 78 nM
IC50 [20]: 28 nM
Structure (SMILES): Cc1ccc(CC2CCCc3c2nn(-c2ccc(F)cc2)c3/C=C/[C@@H](O)C[C@@H](O)CC(=O)O)cc1 (stereo partly specified)
